Data published in ChEMBL document CHEMBL1201862, “PubChem BioAssay data set” (2004).
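Test compounds were applied to cells in 96-well plates for 48 hours at 5 doses. At the GI50, growth is halved.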 The source made the active and inactive calls. Cut-off read from the data, not from the text of the source: active = GI50 up to about 1.1 µM and inactive = higher.

Assays:
Test in all cases: NCI tumour cell line growth inhibition, 48 h
[1] = tested on: MOLT-4
[2] = tested on: U-251
[3] = tested on: 786-0
[4] = tested on: SK-MEL-2
[5] = tested on: HCT-116
[6] = tested on: SNB-19
[7] = tested on: SK-OV-3
[8] = tested on: COLO 205
[9] = tested on: DU-145
[10] = tested on: CCRF-CEM
[11] = tested on: IGROV-1
[12] = tested on: M14
[13] = tested on: NCI-H23
[14] = tested on: UACC-62
[15] = tested on: SK-MEL-5
[16] = tested on: MCF7
[17] = tested on: HOP-92
[18] = tested on: NCI-H460
[19] = tested on: K562
[20] = tested on: T47D
[21] = tested on: EKVX
[22] = tested on: MDA-MB-231
[23] = tested on: KM12
[24] = tested on: UACC-257
[25] = tested on: NCI/ADR-RES
[26] = tested on: HL-60
[27] = tested on: RXF 393
[28] = tested on: OVCAR-3
[29] = tested on: OVCAR-8
[30] = tested on: PC-3
[31] = tested on: RPMI-8226
[32] = tested on: MDA-MB-435
[33] = tested on: HT-29
[34] = tested on: HOP-62
[35] = tested on: ACHN
[36] = tested on: NCI-H522
[37] = tested on: TK-10
[38] = tested on: A549
[39] = tested on: UO-31
[40] = tested on: SF-268
[41] = tested on: NCI-H226
[42] = tested on: MDA-N
[43] = tested on: SNB-75
[44] = tested on: CAKI-1
[45] = tested on: SF-295
[46] = tested on: SK-MEL-28
[47] = tested on: SF-539
[48] = tested on: Malme-3M
[49] = tested on: HCC 2998
[50] = tested on: SR
[51] = tested on: LOX IMVI
[52] = tested on: Hs-578T
[53] = tested on: SW-620
[54] = tested on: HCT-15
[55] = tested on: SN12C
[56] = tested on: OVCAR-5
[57] = tested on: OVCAR-4

CCC(CCCC[C@@H]1CC[C@H]2CC(=O)C[C@@H]12)OC (stereo partly specified)
GI50 [1]: > 100 µM (inactive)
GI50 [2]: > 100 µM (inactive)
GI50 [3]: > 100 µM (inactive)
GI50 [4]: > 100 µM (inactive)
GI50 [5]: > 100 µM (inactive)
GI50 [6]: > 100 µM (inactive)
GI50 [7]: > 100 µM (inactive)
GI50 [8]: > 100 µM (inactive)
GI50 [9]: > 100 µM (inactive)
GI50 [10]: > 100 µM (inactive)
GI50 [11]: > 100 µM (inactive)
GI50 [12]: > 100 µM (inactive)
GI50 [13]: 91.6 µM (inactive)
GI50 [14]: > 100 µM (inactive)
GI50 [15]: 73.5 µM (inactive)
GI50 [16]: > 100 µM (inactive)
GI50 [17]: > 100 µM (inactive)
GI50 [18]: > 100 µM (inactive)
GI50 [19]: 36.7 µM (inactive)
GI50 [20]: > 100 µM (inactive)
GI50 [21]: > 100 µM (inactive)
GI50 [22]: > 100 µM (inactive)
GI50 [23]: > 100 µM (inactive)
GI50 [24]: 56.6 µM (inactive)
GI50 [25]: 76.6 µM (inactive)
GI50 [26]: 49.5 µM (inactive)
GI50 [27]: > 100 µM (inactive)
GI50 [28]: > 100 µM (inactive)
GI50 [29]: > 100 µM (inactive)
GI50 [30]: > 100 µM (inactive)

CCOP(=O)(OCC)C(c1ccc(F)cc1)N(C(=O)NC(F)(F)F)c1ccc(OC)cc1 (stereo unspecified)
GI50 [31]: > 100 µM (inactive)
GI50 [1]: > 100 µM (inactive)
GI50 [32]: > 100 µM (inactive)
GI50 [2]: > 100 µM (inactive)
GI50 [3]: > 100 µM (inactive)
GI50 [33]: > 100 µM (inactive)
GI50 [5]: > 100 µM (inactive)
GI50 [6]: > 100 µM (inactive)
GI50 [34]: > 100 µM (inactive)
GI50 [8]: > 100 µM (inactive)
GI50 [9]: > 100 µM (inactive)
GI50 [10]: > 100 µM (inactive)
GI50 [11]: > 100 µM (inactive)
GI50 [35]: > 100 µM (inactive)
GI50 [12]: > 100 µM (inactive)
GI50 [13]: > 100 µM (inactive)
GI50 [36]: > 100 µM (inactive)
GI50 [37]: > 100 µM (inactive)
GI50 [15]: > 100 µM (inactive)
GI50 [38]: > 100 µM (inactive)
GI50 [16]: > 100 µM (inactive)
GI50 [18]: > 100 µM (inactive)
GI50 [39]: > 100 µM (inactive)
GI50 [19]: > 100 µM (inactive)
GI50 [40]: > 100 µM (inactive)
GI50 [41]: > 100 µM (inactive)
GI50 [42]: > 100 µM (inactive)
GI50 [43]: > 100 µM (inactive)
GI50 [44]: > 100 µM (inactive)
GI50 [21]: > 100 µM (inactive)
GI50 [22]: > 100 µM (inactive)
GI50 [23]: > 100 µM (inactive)
GI50 [45]: > 100 µM (inactive)
GI50 [46]: > 100 µM (inactive)
GI50 [47]: > 100 µM (inactive)
GI50 [24]: > 100 µM (inactive)
GI50 [48]: > 100 µM (inactive)
GI50 [25]: > 100 µM (inactive)
GI50 [49]: > 100 µM (inactive)
GI50 [26]: > 100 µM (inactive)
GI50 [50]: > 100 µM (inactive)
GI50 [27]: > 100 µM (inactive)
GI50 [51]: > 100 µM (inactive)
GI50 [52]: > 100 µM (inactive)
GI50 [53]: > 100 µM (inactive)
GI50 [54]: > 100 µM
GI50 [28]: > 100 µM (inactive)
GI50 [55]: > 100 µM (inactive)
GI50 [56]: > 100 µM (inactive)
GI50 [29]: > 100 µM (inactive)

CC(C)(Oc1ccc2c(=O)cc(-c3ccccc3)oc2c1)C(=O)N1CCN(c2ccccc2)CC1
GI50 [31]: 2.52 µM (inactive)
GI50 [1]: 2.6 µM (inactive)
GI50 [3]: 5.89 µM (inactive)
GI50 [33]: 4.08 µM (inactive)
GI50 [34]: 5.55 µM (inactive)
GI50 [7]: > 10 µM (inactive)
GI50 [9]: 6.12 µM (inactive)
GI50 [10]: 3.15 µM (inactive)
GI50 [11]: > 10 µM (inactive)
GI50 [12]: 3.64 µM (inactive)
GI50 [13]: 3.24 µM (inactive)
GI50 [37]: 8.17 µM (inactive)
GI50 [14]: 3.71 µM (inactive)
GI50 [15]: 4.54 µM (inactive)
GI50 [38]: 4.95 µM (inactive)
GI50 [16]: 3.23 µM (inactive)
GI50 [19]: 3.17 µM (inactive)
GI50 [40]: 4.16 µM (inactive)
GI50 [20]: 3.2 µM (inactive)
GI50 [42]: 3.41 µM (inactive)
GI50 [43]: 4.76 µM (inactive)
GI50 [44]: 3.7 µM (inactive)
GI50 [21]: 5.28 µM (inactive)
GI50 [22]: 6.46 µM (inactive)
GI50 [23]: 3.42 µM (inactive)
GI50 [45]: 4.71 µM (inactive)
GI50 [46]: 6.81 µM (inactive)
GI50 [24]: 3.56 µM (inactive)
GI50 [48]: 4.84 µM (inactive)
GI50 [49]: 5.94 µM (inactive)
GI50 [26]: 1.62 µM (inactive)
GI50 [50]: 2.49 µM (inactive)
GI50 [27]: 1.47 µM (inactive)
GI50 [51]: 5.5 µM (inactive)
GI50 [53]: 6.64 µM (inactive)
GI50 [54]: 4.55 µM
GI50 [55]: 5.74 µM (inactive)
GI50 [29]: 5.57 µM (inactive)
GI50 [30]: 3.05 µM (inactive)

Clc1ccccc1CN1COc2c(cc(Cl)c3cccnc23)C1
GI50 [1]: 0.28 µM (active)
GI50 [32]: 6.19 µM (inactive)
GI50 [2]: 3.33 µM (inactive)
GI50 [3]: 4.39 µM (inactive)
GI50 [4]: 6.19 µM (inactive)
GI50 [33]: 19.2 µM (inactive)
GI50 [5]: 3.64 µM (inactive)
GI50 [6]: 4.35 µM (inactive)
GI50 [34]: 3.05 µM (inactive)
GI50 [7]: 8.75 µM (inactive)
GI50 [8]: 19 µM (inactive)
GI50 [9]: 7.19 µM (inactive)
GI50 [11]: 5.55 µM (inactive)
GI50 [35]: 1.84 µM (inactive)
GI50 [12]: 3.77 µM (inactive)
GI50 [13]: 3.38 µM (inactive)
GI50 [36]: 3.4 µM (inactive)
GI50 [37]: 3.44 µM (inactive)
GI50 [14]: 1.52 µM (inactive)
GI50 [15]: 1.38 µM (inactive)
GI50 [38]: 3.35 µM (inactive)
GI50 [16]: 4.94 µM (inactive)
GI50 [17]: 3.18 µM (inactive)
GI50 [18]: 2.75 µM (inactive)
GI50 [39]: 2.89 µM (inactive)
GI50 [19]: 2.99 µM (inactive)
GI50 [40]: 5.18 µM (inactive)
GI50 [41]: 1.3 µM (inactive)
GI50 [20]: 6.05 µM (inactive)
GI50 [43]: 5.68 µM (inactive)
GI50 [44]: 4.49 µM (inactive)
GI50 [22]: 2.3 µM (inactive)
GI50 [23]: 3.03 µM (inactive)
GI50 [45]: 1.85 µM (inactive)
GI50 [46]: 6.27 µM (inactive)
GI50 [47]: 2.69 µM (inactive)
GI50 [24]: 3.43 µM (inactive)
GI50 [48]: 2.47 µM (inactive)
GI50 [25]: 0.224 µM (active)
GI50 [26]: 0.398 µM (active)
GI50 [50]: 0.439 µM (active)
GI50 [27]: 13.7 µM (inactive)
GI50 [57]: 3.97 µM (inactive)
GI50 [52]: 4.62 µM (inactive)
GI50 [53]: 5.01 µM (inactive)
GI50 [54]: 0.165 µM
GI50 [28]: 6.59 µM (inactive)
GI50 [55]: 0.0249 µM (active)
GI50 [56]: 4.28 µM (inactive)
GI50 [29]: 2.85 µM (inactive)
GI50 [30]: 2.57 µM (inactive)

CC(=O)OCC(=O)[C@@]1(O)CC[C@H]2[C@@H]3CCC4=CC(=O)C=C[C@]4(C)[C@@]3(F)[C@@H](O)C[C@@]21C [ISOFLUPREDONE ACETATE]
GI50 [30]: 65.3 µM (inactive)
